Patent US20100284985A1, “Composition” (Danisco A/S, priority 2007, published 2010)

What was measured:
[1] = test system: Lactobacilllus farciminis DCS 611; assay: MIC assay, LAE; assay type: cell-based; conditions: ppm of the active component
Method: (§1) The Minimal Inhibition Concentration Assay (MIC) is a 96 well liquid based assay developed for a semi-automated assessment system and performed essentially as described in (7). […] From an overnight culture […] of each strain was inoculated in one well corresponding to an approximate inoculation density of 10^3-10^4 cells/well. Media used were CASO, MRS and YM (Appendix 1). Strains were incubated at 20° C., 25° C., 37° C. and under aerobic/anaerobic conditions depending on the preferred conditions for the particular strain (Appendix 1). At time zero, after adding the AM, the optical density (O.D.) of the bacterial culture is measured at 620 nm and then again after 24 hours. […] MIC is defined as the lowest concentration of the AM that will inhibit measurable growth. A bacteriostatic effect is defined as the OD620 at 24 h being less than or equal to 20% of the growth control.

[2] = test system: Lactobacillus fermentum DCS 573; assay: MIC assay, LAE; assay type: cell-based
Method: as §1

[3] = test system: Leuconostoc mesenteroides ss DCS 512; assay: MIC assay, LAE; assay type: cell-based
Method: as §1

Leuconostoc spp. DCS 947 = assay: MIC assay, LAE; assay type: cell-based; conditions: ppm of the active component
Method: as §1

Listeria innocua DCS 17 = assay: MIC assay, LAE; assay type: cell-based
Method: as §1

[4] = test system: Listeria monocytogenes DCS 489; assay: MIC assay, LAE; assay type: cell-based
Method: as §1

[5] = test system: Listeria monocytogenes DCS 490; assay: MIC assay, LAE; assay type: cell-based
Method: as §1

Pichia anomala DCS 603 = assay: MIC assay, LAE; assay type: cell-based
Method: as §1

[6] = test system: Rhodotorula mucilaginosa H116; assay: MIC assay, LAE; assay type: cell-based; conditions: ppm of the active component
Method: as §1

[7] = test system: Saccharomyces cerevisiae DCS 599; assay: MIC assay, LAE; assay type: cell-based
Method: as §1

[8] = test system: Salmonella typhimurium DCS 218; assay: MIC assay, LAE; assay type: cell-based; conditions: ppm of the active component
Method: as §1

[9] = test system: Salmonella typhimurium DCS 223; assay: MIC assay, LAE; assay type: cell-based; conditions: ppm of the active component
Method: as §1

[10] = test system: Staphylococcus aureus DCS 630; assay: MIC assay, LAE; assay type: cell-based
Method: as §1

[11] = test system: Zygosaccharomyces bailii DCS 538; assay: MIC assay, LAE; assay type: cell-based
Method: as §1

[12] = test system: Lactobacilllus curvatus DCS 609; assay: MIC assay, LAE; assay type: cell-based, Lactobacillus curvatus; conditions: Latilactobacillus curvatus, DCS609, ppm of the active component
Method: as §1

[13] = test system: Lactobacilllus sakei DCS 608; assay: MIC assay, LAE; assay type: cell-based, Lactobacillus sakei; conditions: Latilactobacillus sakei, DCS608, ppm of the active component
Method: as §1

[14] = test system: Bacillus licheniformis DCS 561; assay: FIC checkerboard assay, LAE with Nisaplin; assay type: cell-based
Method: (§2) The Fractional Inhibition Concentration (FIC) assay is also a 96 well liquid based assay with a checkerboard titration layout (7, 8), one plate for each strain and sets of concentrations. Cultivation media can be seen in Appendix 1. O.D. at 620 nm is read at zero hours (at strain addition) and after a 24-hour incubation period. […] The FICs for the two substances are plotted towards each other in a graph called an isobologram. […] Additionally, the FIC index is then calculated as follows: FICindex=FICA+FICB, if FICindex is lower than 1 there is synergy, if it is higher than one there is antagony and if it is equal to one there is an additive effect.
(§3) FICs were determined for LAE in combination with Nisaplin and Natamax for strains in Table 1A and B.

[15] = test system: Brochothrix thermosphacta DCS 780; assay: FIC checkerboard assay, LAE with Nisaplin; assay type: cell-based
Method: as §2, §3

[16] = test system: Listeria monocytogenes DCS 489; assay: FIC checkerboard assay, LAE with Nisaplin; assay type: cell-based
Method: as §2, §3

[17] = Leuconostoc mesenteroides, SSDCS512, ppm of the active component
[18] = Listeria innocua, DCS17, ppm of the active component
[19] = Listeria monocytogenes, DCS489, ppm of the active component
[20] = Listeria monocytogenes, DCS490, ppm of the active component
[21] = Hansenula anomala, DCS603, ppm of the active component
[22] = Saccharomyces cerevisiae, DCS599, ppm of the active component
[23] = Salmonella enterica, TYPHIMURIUM
[24] = Staphylococcus aureus, DCS630, ppm of the active component
[25] = Zygosaccharomyces bailii, DCS538, ppm of the active component

CCCCCCCCCCCC(=O)N[C@@H](CCCNC(=N)N)C(=O)OCC.Cl [LAE, N^α-Lauroyl-L-arginine ethyl ester monohydrochloride]
MIC [1]: 49.2 µg/mL
increased lag phase [1]: 49.2 ppm
MBC ([2]; DCS573, ppm of the active component): > 166 µg/mL
MIC ([2]; Limosilactobacillus reuteri, DCS573, ppm of the active component): 73.8 µg/mL
increased lag phase ([2]; ppm of the active component): 73.8 ppm
MBC [3, 17]: > 166 µg/mL
MIC [3, 17]: 41 µg/mL
increased lag phase ([3]; ppm of the active component): 32.8 ppm
MBC (Leuconostoc spp. DCS 947; Leuconostoc): > 166 µg/mL
MIC (Leuconostoc spp. DCS 947; Leuconostoc): 32.8 µg/mL
increased lag phase (Leuconostoc spp. DCS 947): 32.8 ppm
MBC (Listeria innocua DCS 17; [18]): 21.9 µg/mL
MIC (Listeria innocua DCS 17; [18]): 12.1 µg/mL
increased lag phase (Listeria innocua DCS 17; ppm of the active component): 5.4 ppm
MBC [4, 19]: 14.6 µg/mL
MIC [4, 19]: 12.1 µg/mL
increased lag phase ([4]; ppm of the active component): 9.7 ppm
MBC [5, 20]: 12.2 µg/mL
MIC [5, 20]: 12.1 µg/mL
increased lag phase ([5]; ppm of the active component): 8.1 ppm
MBC (Pichia anomala DCS 603; [21]): 111 µg/mL
MIC (Pichia anomala DCS 603; [21]): 73.8 µg/mL
increased lag phase (Pichia anomala DCS 603; ppm of the active component): 32.8 ppm
MBC ([6]; Rhodotorula mucilaginosa): 6.5 µg/mL
MIC ([6]; Rhodotorula mucilaginosa): 6.5 µg/mL
increased lag phase [6]: 4.3 ppm
MBC [7, 22]: 14.6 µg/mL
MIC [7, 22]: 14.6 µg/mL
increased lag phase ([7]; ppm of the active component): 14.6 ppm
MBC [8, 23]: 49.2 µg/mL
MIC [8, 23]: 32.8 µg/mL
increased lag phase [8]: 12.1 ppm
MBC [9, 23]: 32.8 µg/mL
MIC [9, 23]: 21.9 µg/mL
increased lag phase [9]: 14.6 ppm
MBC [10, 24]: 18.3 µg/mL
MIC [10, 24]: 14.6 µg/mL
increased lag phase ([10]; ppm of the active component): 14.6 ppm
MBC [11, 25]: 6.5 µg/mL
MIC [11, 25]: 6.5 µg/mL
increased lag phase ([11]; ppm of the active component): 4.3 ppm
MBC [12]: > 166 µg/mL
MIC [12]: 32.8 µg/mL
MBC [13]: > 166 µg/mL
MIC [13]: 32.8 µg/mL
FICLAE ([14]; Nisaplin 50 ppm + LAE 22.2 ppm): 0.44
FICLAE ([14]; Nisaplin 130 ppm + LAE 14.8 ppm): 0.30
FICLAE ([14]; Nisaplin 210 ppm + LAE 9.9 ppm): 0.20
FICLAE ([14]; Nisaplin 250 ppm + LAE 0 ppm): 0.00
FICLAE ([15]; Nisaplin 50 ppm + LAE 33 ppm): 0.67
FICLAE ([15]; Nisaplin 90 ppm + LAE 22 ppm): 0.44
FICLAE ([15]; Nisaplin 210 ppm + LAE 0 ppm): 0.00
FICLAE ([16]; Nisaplin 0 ppm + LAE 50 ppm): 1.00
FICLAE ([16]; Nisaplin 50 ppm + LAE 22 ppm): 0.44
FICLAE ([16]; Nisaplin 90 ppm + LAE 15 ppm): 0.30
FICLAE ([16]; Nisaplin 130 ppm + LAE 5 ppm): 0.09
FICLAE ([16]; Nisaplin 170 ppm + LAE 4 ppm): 0.04
FICLAE ([16]; Nisaplin 210 ppm + LAE 1 ppm): 0.02
FICLAE ([16]; Nisaplin 250 ppm + LAE 0 ppm): 0.00
